Measurements reported in US20070128217A1 (priority 2003, published 2007).

Assays:
[1] = tested on: antibodies in sera from SARS patients (sera 1a, 1b, 2, 6, 37, 62, London, SARS-yellow, SARS-green); format: binding, human; design: Binding of serum 6 to linear peptides of protein X1 of SARS-CoV Urbani / Binding of serum 37 to linear peptides of protein X1 of SARS-CoV Urbani / Binding of serum 6 to looped/cyclic peptide (PEPSCAN-ELISA) / Binding of serum 37 to looped/cyclic peptide (PEPSCAN-ELISA) / Binding of serum 37 to looped/cyclic peptides of protein X1 of SARS-CoV Urbani / Binding of serum 6 to linear peptides of protein X2 / Binding of serum 37 to linear peptides of protein X2 / Binding of serum 37 to looped/cyclic peptides of protein X2 of SARS-CoV Urbani / Binding of serum 6 to linear peptides of protein M of SARS-CoV Urbani / Binding of serum 37 to linear peptides of protein M of SARS-CoV Urbani / Binding of serum 6 to looped/cyclic peptides of protein M of SARS-CoV Urbani / Binding of serum 37 to looped/cyclic peptides of protein M of SARS-CoV Urbani / Binding of serum 6 to linear peptides of protein X3 of SARS-CoV Urbani / Binding of serum 37 to linear peptides of protein X3 of SARS-CoV Urbani / Binding of serum 37 to looped/cyclic peptides of protein X3 of SARS-CoV Urbani / Binding of serum 6 to linear peptides of protein X4 of SARS-CoV Urbani / Binding of serum 37 to linear peptides of protein X4 of SARS-CoV Urbani / Binding of serum 37 to looped/cyclic peptides of protein X4 of SARS-CoV Urbani / Binding of serum 6 to linear peptides of protein X5 of SARS-CoV Urbani / Binding of serum 37 to linear peptides of protein X5 of SARS-CoV Urbani / Binding of serum 37 to looped/cyclic peptides of protein X5 of SARS-CoV Urbani / Binding of serum 6 to linear peptides of protein N of SARS-CoV Urbani / Binding of serum 37 to linear peptides of protein N of SARS-CoV Urbani / Binding of serum 6 to linear peptide (PEPSCAN-ELISA) / Binding of serum 1a to looped/cyclic peptides of protein N of SARS-CoV Urbani / Binding of serum 1b to looped/cyclic peptides of protein N of SARS-CoV Urbani / Binding of serum 2 to looped/cyclic peptides of protein N of SARS-CoV Urbani / Binding of serum 6 to looped/cyclic peptides of protein N of SARS-CoV Urbani / Binding of serum 37 to looped/cyclic peptides of protein N of SARS-CoV Urbani / Binding of serum 62 to looped/cyclic peptides of protein N of SARS-CoV Urbani / Binding of serum London to looped/cyclic peptides of protein N of SARS-CoV Urbani / Binding of serum SARS-green to looped/cyclic peptides of protein N of SARS-CoV Urbani: unit not given here
[2] = tested on: control sera (pooled serum of ten healthy LUMC hospital workers; commercial negative donor pooled serum from the Dutch bloodbank); format: binding, human; design: Binding of Control serum LUMC to linear peptides / Binding of Control serum Blood-bank to linear peptides / Binding of Control serum LUMC to looped peptides / Binding of Control Serum Blood-Bank to Looped peptides / Binding of Control serum LUMC to linear peptides of the protein M of SARS-CoV Urbani / Binding of Control serum Blood-bank to linear peptides of the protein M of SARS-CoV Urbani / Binding of Control serum LUMC to looped peptides of the protein M of SARS-CoV Urbani / Binding of Control Serum Blood-Bank to Looped peptides of the protein M of SARS-CoV Urbani: unit not given here
[3] = tested on: rabbit serum obtained by immunizing a rabbit with the SARS-CoV strain Frankfurt 1; format: binding; design: Binding of a rabbit serum to linear peptides / Binding of a rabbit serum to looped peptides / Rabbit serum linear peptides / Rabbit serum looped peptides / Binding of a rabbit serum to linear peptides of protein N of SARS-CoV Urbani (Rabbit serum linear peptides) / Binding of a rabbit serum to looped/cyclic peptides of protein N of SARS-CoV Urbani (Rabbit serum looped peptides): unit not given here

SRRRLLACLCKHKKV
Binding of serum 1a to looped/cyclic peptides of protein X2 of SARS-CoV Urbani [1]: 0.2 | Binding of serum 1b to looped/cyclic peptides of protein X2 of SARS-CoV Urbani [1]: 0.2 | Binding of serum 2 to looped/cyclic peptides of protein X2 of SARS-CoV Urbani [1]: 0.1 | Binding of serum 6 to looped/cyclic peptides of protein X2 of SARS-CoV Urbani [1]: 0.0 | Binding of serum 37 to looped/cyclic peptides of protein X2 of SARS-CoV Urbani [1]: 0.2 | Binding of serum 62 to looped/cyclic peptides of protein X2 of SARS-CoV Urbani [1]: 0.3 | Binding of serum London to looped/cyclic peptides of protein X2 of SARS-CoV Urbani [1]: 0.1 | Binding of serum SARS-green to looped/cyclic peptides of protein X2 of SARS-CoV Urbani [1]: 0.2 | Binding of serum SARS-yellow to looped/cyclic peptides of protein X2 of SARS-CoV Urbani [1]: 0.2 | Recognition of the peptide by sera of SARS-CoV infected individuals, and form (linear, looped/cyclic) in which it is recognized [1]: recognized in linear form | Binding of Control Serum Blood-Bank to Looped peptides [2]: 0.2 | Binding of Control serum Blood-bank to linear peptides [2]: 0.9 | Binding of Control serum LUMC to linear peptides [2]: 0.6 | Binding of Control serum LUMC to looped peptides [2]: 0.2 | Binding of a rabbit serum to linear peptides [3]: 0.3 | Binding of a rabbit serum to looped peptides [3]: 0.4

STAWLCALGKVLPFH
Binding of serum 1a to linear peptides of protein X5 of SARS-CoV Urbani [1]: 0.8 | Binding of serum 1a to looped/cyclic peptides of protein X5 of SARS-CoV Urbani [1]: 0.6 | Binding of serum 1b to linear peptides of protein X5 of SARS-CoV Urbani [1]: 0.6 | Binding of serum 1b to looped/cyclic peptides of protein X5 of SARS-CoV Urbani [1]: 0.4 | Binding of serum 2 to linear peptides of protein X5 of SARS-CoV Urbani [1]: 0.6 | Binding of serum 2 to looped/cyclic peptides of protein X5 of SARS-CoV Urbani [1]: 0.6 | Binding of serum 6 to linear peptides of protein X5 of SARS-CoV Urbani [1]: 0.7 | Binding of serum 6 to looped/cyclic peptides of protein X5 of SARS-CoV Urbani [1]: 0.5 | Binding of serum 37 to linear peptides of protein X5 of SARS-CoV Urbani [1]: 0.7 | Binding of serum 37 to looped/cyclic peptides of protein X5 of SARS-CoV Urbani [1]: 0.4 | Binding of serum 62 to linear peptides of protein X5 of SARS-CoV Urbani [1]: 0.8 | Binding of serum 62 to looped/cyclic peptides of protein X5 of SARS-CoV Urbani [1]: 0.7 | Binding of serum London to linear peptides of protein X5 of SARS-CoV Urbani [1]: 0.7 | Binding of serum London to looped/cyclic peptides of protein X5 of SARS-CoV Urbani [1]: 0.2 | Binding of serum SARS-green to linear peptides of protein X5 of SARS-CoV Urbani [1]: 0.6 | Binding of serum SARS-green to looped/cyclic peptides of protein X5 of SARS-CoV Urbani [1]: 0.3 | Binding of serum SARS-yellow to linear peptides of protein X5 of SARS-CoV Urbani [1]: 0.3 | Binding of serum SARS-yellow to looped/cyclic peptides of protein X5 of SARS-CoV Urbani [1]: 1.0 | Binding of Control Serum Blood-Bank to Looped peptides [2]: 0.5 | Binding of Control serum Blood-bank to linear peptides [2]: 0.9 | Binding of Control serum LUMC to linear peptides [2]: 0.6 | Binding of Control serum LUMC to looped peptides [2]: 0.6 | Rabbit serum linear peptides [3]: 0.5 | Rabbit serum looped peptides [3]: 0.7

STHFAFACADGTRHT
Binding of serum 1a to linear peptides of protein X4 of SARS-CoV Urbani [1]: 0.7 | Binding of serum 1a to looped/cyclic peptides of protein X4 of SARS-CoV Urbani [1]: 0.7 | Binding of serum 1b to linear peptides of protein X4 of SARS-CoV Urbani [1]: 0.6 | Binding of serum 1b to looped/cyclic peptides of protein X4 of SARS-CoV Urbani [1]: 0.5 | Binding of serum 2 to linear peptides of protein X4 of SARS-CoV Urbani [1]: 0.5 | Binding of serum 2 to looped/cyclic peptides of protein X4 of SARS-CoV Urbani [1]: 0.6 | Binding of serum 6 to linear peptides of protein X4 of SARS-CoV Urbani [1]: 0.7 | Binding of serum 6 to looped/cyclic peptides of protein X4 of SARS-CoV Urbani [1]: 0.5 | Binding of serum 37 to linear peptides of protein X4 of SARS-CoV Urbani [1]: 0.7 | Binding of serum 37 to looped/cyclic peptides of protein X4 of SARS-CoV Urbani [1]: 0.6 | Binding of serum 62 to linear peptides of protein X4 of SARS-CoV Urbani [1]: 0.8 | Binding of serum 62 to looped/cyclic peptides of protein X4 of SARS-CoV Urbani [1]: 0.5 | Binding of serum London to linear peptides of protein X4 of SARS-CoV Urbani [1]: 0.8 | Binding of serum London to looped/cyclic peptides of protein X4 of SARS-CoV Urbani [1]: 0.3 | Binding of serum SARS-green to linear peptides of protein X4 of SARS-CoV Urbani [1]: 0.6 | Binding of serum SARS-green to looped/cyclic peptides of protein X4 of SARS-CoV Urbani [1]: 0.5 | Binding of serum SARS-yellow to linear peptides of protein X4 of SARS-CoV Urbani [1]: 0.3 | Binding of serum SARS-yellow to looped/cyclic peptides of protein X4 of SARS-CoV Urbani [1]: 0.6 | Binding of Control Serum Blood-Bank to Looped peptides [2]: 0.7 | Binding of Control serum Blood-bank to linear peptides [2]: 0.6 | Binding of Control serum LUMC to linear peptides [2]: 0.5 | Binding of Control serum LUMC to looped peptides [2]: 0.9 | Rabbit serum linear peptides [3]: 0.4 | Rabbit serum looped peptides [3]: 0.4

SVSPKLFIRQEEVQQ
Binding of serum 1a to linear peptides of protein X4 of SARS-CoV Urbani [1]: 0.7 | Binding of serum 1a to looped/cyclic peptides of protein X4 of SARS-CoV Urbani [1]: 0.7 | Binding of serum 1b to linear peptides of protein X4 of SARS-CoV Urbani [1]: 0.5 | Binding of serum 1b to looped/cyclic peptides of protein X4 of SARS-CoV Urbani [1]: 0.6 | Binding of serum 2 to linear peptides of protein X4 of SARS-CoV Urbani [1]: 0.3 | Binding of serum 2 to looped/cyclic peptides of protein X4 of SARS-CoV Urbani [1]: 0.6 | Binding of serum 6 to linear peptides of protein X4 of SARS-CoV Urbani [1]: 0.5 | Binding of serum 6 to looped/cyclic peptides of protein X4 of SARS-CoV Urbani [1]: 0.4 | Binding of serum 37 to linear peptides of protein X4 of SARS-CoV Urbani [1]: 0.7 | Binding of serum 37 to looped/cyclic peptides of protein X4 of SARS-CoV Urbani [1]: 0.7 | Binding of serum 62 to linear peptides of protein X4 of SARS-CoV Urbani [1]: 0.7 | Binding of serum 62 to looped/cyclic peptides of protein X4 of SARS-CoV Urbani [1]: 0.6 | Binding of serum London to linear peptides of protein X4 of SARS-CoV Urbani [1]: 0.6 | Binding of serum London to looped/cyclic peptides of protein X4 of SARS-CoV Urbani [1]: 0.3 | Binding of serum SARS-green to linear peptides of protein X4 of SARS-CoV Urbani [1]: 0.4 | Binding of serum SARS-green to looped/cyclic peptides of protein X4 of SARS-CoV Urbani [1]: 0.7 | Binding of serum SARS-yellow to linear peptides of protein X4 of SARS-CoV Urbani [1]: 0.3 | Binding of serum SARS-yellow to looped/cyclic peptides of protein X4 of SARS-CoV Urbani [1]: 0.4 | Binding of Control Serum Blood-Bank to Looped peptides [2]: 0.4 | Binding of Control serum Blood-bank to linear peptides [2]: 0.6 | Binding of Control serum LUMC to linear peptides [2]: 0.3 | Binding of Control serum LUMC to looped peptides [2]: 0.7 | Rabbit serum linear peptides [3]: 0.4 | Rabbit serum looped peptides [3]: 0.3

SVTDTIVVTEGDGIS
Binding of serum 1a to linear peptides of protein X1 of SARS-CoV Urbani [1]: 0.6 | Binding of serum 1a to looped/cyclic peptides of protein X1 of SARS-CoV Urbani [1]: 0.3 | Binding of serum 1b to linear peptides of protein X1 of SARS-CoV Urbani [1]: 0.5 | Binding of serum 1b to looped/cyclic peptides of protein X1 of SARS-CoV Urbani [1]: 0.2 | Binding of serum 2 to linear peptides of protein X1 of SARS-CoV Urbani [1]: 0.4 | Binding of serum 2 to looped/cyclic peptides of protein X1 of SARS-CoV Urbani [1]: 0.1 | Binding of serum 6 to linear peptides of protein X1 of SARS-CoV Urbani [1]: 0.4 | Binding of serum 6 to looped/cyclic peptides of protein X1 of SARS-CoV Urbani [1]: 0.1 | Binding of serum 37 to linear peptides of protein X1 of SARS-CoV Urbani [1]: 0.5 | Binding of serum 37 to looped/cyclic peptides of protein X1 of SARS-CoV Urbani [1]: 0.3 | Binding of serum 62 to linear peptides of protein X1 of SARS-CoV Urbani [1]: 0.5 | Binding of serum 62 to looped/cyclic peptides of protein X1 of SARS-CoV Urbani [1]: 0.3 | Binding of serum London to linear peptides of protein X1 of SARS-CoV Urbani [1]: 0.2 | Binding of serum London to looped/cyclic peptides of protein X1 of SARS-CoV Urbani [1]: 0.1 | Binding of serum SARS-green to linear peptides of protein X1 of SARS-CoV Urbani [1]: 0.1 | Binding of serum SARS-green to looped/cyclic peptides of protein X1 of SARS-CoV Urbani [1]: 0.2 | Binding of serum SARS-yellow to linear peptides of protein X1 of SARS-CoV Urbani [1]: 0.4 | Binding of serum SARS-yellow to looped/cyclic peptides of protein X1 of SARS-CoV Urbani [1]: 0.2 | Binding of Control Serum Blood-Bank to Looped peptides [2]: 0.3 | Binding of Control serum Blood-bank to linear peptides [2]: 0.4 | Binding of Control serum LUMC to linear peptides [2]: 0.4 | Binding of Control serum LUMC to looped peptides [2]: 0.3 | Binding of a rabbit serum to linear peptides [3]: 0.1 | Binding of a rabbit serum to looped peptides [3]: 0.4
